Where “and” joins values, the source holds several entries; their conditions need not be identical. Equal values may be shown once. Read-outs that look alike come from different tables or passages of the source. Where no end group is shown, it is not given here. [ ]: non-standard residue; d: D form. The star is where a group is joined. Farnesyl = CC(C)=CCC/C(C)=C/CC/C(C)=C/C*
How the values were obtained:
[1] = tested on: membrane-bound isoprenylated protein endoprotease; details: cited from earlier work
[2] = biological target: T1, cysteine protease apopain (Homo sapiens, UniProt P42574); details: cited from earlier work
T1 sequence (P42574 29-175 limits assumed): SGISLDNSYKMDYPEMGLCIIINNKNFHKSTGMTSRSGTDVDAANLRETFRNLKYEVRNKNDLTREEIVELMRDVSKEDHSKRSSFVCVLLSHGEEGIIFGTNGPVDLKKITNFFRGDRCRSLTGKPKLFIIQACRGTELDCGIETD
T1 sequence (P42574 176-277 limits assumed): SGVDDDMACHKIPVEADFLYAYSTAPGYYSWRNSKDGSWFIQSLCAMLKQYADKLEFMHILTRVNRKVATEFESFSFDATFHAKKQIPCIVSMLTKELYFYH

[3] = tested on: protease of bovine liver microsomal membranes (isoprenylated protein endoprotease); experiment: Proteolysis of N-[3H]acetyl isoprenylated peptide substrates by calf liver microsomal membranes (N-[3H]-AFC formation, HPLC); details: for substrate activity (in words): calf liver microsomal membranes; for activity as substrate (Table 1, words): 10 mM, prolonged incubation time (16 hours), detection limit 1.13 pmol/min/mg
[4] = biological target: T2, cysteine protease ICE (interleukin-1β converting enzyme) (Homo sapiens, UniProt P29466); details: cited from earlier work
T2 sequence (P29466 120-297 limits assumed): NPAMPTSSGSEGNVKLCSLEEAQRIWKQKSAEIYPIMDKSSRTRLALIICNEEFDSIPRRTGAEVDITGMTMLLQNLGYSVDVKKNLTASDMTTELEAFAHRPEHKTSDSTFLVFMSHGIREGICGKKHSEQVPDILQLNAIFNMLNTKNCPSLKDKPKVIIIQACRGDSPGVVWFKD
T2 sequence (P29466 317-404 limits assumed): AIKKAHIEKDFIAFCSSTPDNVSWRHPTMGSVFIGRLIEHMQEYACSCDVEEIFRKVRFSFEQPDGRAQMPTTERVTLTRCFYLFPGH

[5] = tested on: isoprenylated protein endoprotease; experiment: Inhibition of the solubilized / partially purified enzyme by non-halomethyl ketone inhibitors; format: biochemical, bovine
[6] = tested on: isoprenylated protein endoprotease; experiment: Inhibition of the isoprenylated protein endoprotease by halomethyl ketones (preincubation, 20-fold dilution, Kitz-Wilson); format: biochemical, bovine
Protocol: A typical procedure of inhibition is given here to illustrate the details of this procedure. A CHAPSO-solubilized protein preparation (2.5 mg/mL) or a partially […] protein preparation (0.17 mg/mL) was incubated with chloromethyl ketone inhibitors at 37° C. for 30 minutes. Aliquots were removed at timed intervals and diluted with assay buffer E for the solubilized preparation of with assay buffer D for the partially purified protein preparation in 20-fold. The final protein and substrate concentrations were 0.12 mg/mL (or 8.5 μg of partially purified protein preparation per milliliter) and 2.0 μM, respectively, except as otherwise noted; the residual enzyme activity was assayed as described above. TPCK and BFC-CMK were characterized by kinetic measurements. The bimolecular rate constant Kinh /K1 and pseudo-first-order kinetic rate constant Kinh were obtained using the Kitz-Wilson method (Kitz & Wilson, 1962). According to Kitz-Wilson method, the irreversible modification of an enzyme by an active-site directed inhibitor is given by [drawing 9] where K1 =[E]·[I]/[E·I] and -d([E]+[E·I])/dt=Kinh [E·I]. [I] and [E] are inhibitor and enzyme concentrations at a certain time, respectively. Under conditions here [I]>>[Eo ], which is the enzyme concentration at time zero, [I] is constant. Under conditions where the enzyme-inhibitor solution is extensively diluted before the assay, a simplified equation 2 can be obtained as follows: […]
To further establish the specificity of the inactivation process, several commercially available haloketones were studies as putative inactivators of the endoprotease. The structures of these analogs are shown and their activities are shown in Table V. In these studies, the solubilized protein material was preincubated with a chloromethyl ketone inhibitor at 284 μM (unless otherwise noted) for 30 minutes; then 2.5-μL aliquots of the incubated solution were taken and diluted 20-fold for assay of the residual enzyme activity. […] Save for the dipeptide derivatives (ZGGFCMK and ZAPFCMK) derived from TPCK, the other halomethyl ketones tested are virtually inert.
FIG. 16(A) Time-dependent inhibition. 16B Kitz-Wilson plot (the upper panel) for the inhibition of the isoprenylated protein endoprotease by TPCK. The inhibition studies were carried out at 37° C. using the solubilized endoprotease preparation. Aliquote of the inhibitor-enzyme solution were taken at interval times and diluted by a factor of 20, and the enzyme activity was assayed as described in Methods. (B) (the lower panel) the concentration-dependent inhibition of the endoprotease by TPCK. The inhibition studies were carried out at 37° C. The crude CHAPSO-solubilized endoprotease preparations (0.12 mg/mL) were preincubated for 60 min in 50 μL of buffer E in the presence of 284 μM TPCK or TLCK with 6% DMSO and 2% 2-propanol. After the incubation, the reaction solution was diluted by a factor of 20, and the remaining enzyme activity of the inhibitor-enzyme solution was assayed as described in Methods. Data were represented in mean from duplicate runs.

[7] = Table 1, same enzyme preparation, average of two determinations ±S.D.

N=C(N)c1ccc(CS(=O)(=O)F)cc1 [APMSF, 4-(amidinophe-nyl)methanesulfonyl fluoride]
inhibition of the endoprotease (in words) [1]: not inhibited

CCN1C(=O)C=CC1=O [N-ethylma-leimide]
inhibition of apopain (in words) [2]: inhibited

N-acetyl-S-trans-geranyl-L-Cys-L-Val-L-Ile [AGC--Val--Ile (3)]
Km [3, 7]: 14.6 ± 2.14 µM | Vmax [3, 7]: 19.35 ± 1.12 pmol/min/mg | substrate activity (in words) [3]: good substrates

O=C(O)c1cc[c]([Hg][Cl])cc1 [PCMB, p-chloromercuribenzoate]
inhibition of the endoprotease ([1]; 0.5 mM, membrane-bound enzyme): 41% | inhibition of ICE (in words) [4]: inactivated | partially purified enzyme activity inhibited ([5]; 5 μM, partially purified enzyme): 67% | enzyme activity (%) detergent extract ([5]; 0.5 mM PCMB, then +5 mM DTT (regenerated activity)): 44 ± 4% and 44% | regeneration of the inhibited activity after extensive dialysis and dilution (in words) ([5]; detergent extract inhibited by 0.5 mM PCMB): no regeneration of the inhibited activity was observed | enzyme activity (%) partially purified ([5]; inhibitor 5 μm, control 100): 33 ± 3%

CC(=O)N[C@@H](CSC/C=C(\C)CC/C=C(\C)CCC=C(C)C)C(N)=O [AFC amide]
substrate activity (in words) [3]: not a substrate for the enzyme

N-acetyl-S-all-trans-farnesyl-L-Cys-D-Val-L-Ile [AFC--Val--Ile (7)]
activity as substrate (Table 1, words) [3]: inactive | substrate activity (in words) [3]: did not have substrate activity

N-acetyl-S-trans-geranyl-D-Cys-L-Val-Ile [AGC--Val--Ile (3) D--L--L]
activity as substrate (Table 1, words) [3]: inactive | substrate activity (in words) [3]: no measurable protease activity

N-Ac-S-all-trans-farnesyl-D-Cys-L-Val-L-Ile [AFC--Val--Ile (6)]
activity as substrate (Table 1, words) [3]: inactive

CC(C)=CCC/C(C)=C/CC/C(C)=C/CSC[C@@H](C=O)NC(=O)OC(C)(C)C (stereo in doubt) [N-Boc-S-all-trans-farnesyl-L-cysteine Aldehyde]
inhibition of the enzyme (in words) ([1]; Ma et al., 1993): fairly potent competitive inhibitor

N-[^3 H]-acetyl-S-all-trans-farnesyl-L-Cys-L-Val-D-Ile [AFC--Val--Ile (8)]
activity as substrate (Table 1, words) [3]: inactive | substrate activity (in words) [3]: did not have substrate activity

N-[^3 H]-acetyl-S-all-trans-farnesyl-L-Cys-L-Val-L-Ile-D-Met ({(3H)‑acetyl}-C(Farnesyl)VI[dM]) [AFC--Val--Ile--Met (10)]
activity as substrate (Table 1, words) [3]: weakly active (detectable activity is observed under prolonged incubation periods, but the activity is <5% that observed with AFC-V-I-S) | substrate activity (in words) [3]: processed to some extent

N-acetyl-S-all-trans-farnesyl-D-Cys-D-Val-L-Ile [D-D-L]
substrate activity (in words) [3]: inactive

CC(=O)N[C@@H](CC(C)C)C(=O)N[C@@H](CC(C)C)C(=O)N[C@H](C=O)CCCNC(=N)N [leupeptin]
inhibition of the endoprotease (in words) ([1]; 1.0 μM): not inhibited

N-Benzyloxycarbonylglycylglycyl-S-all-trans-farnesyl-L-cysteine Chloromethyl Ketone [ZGGFCCMK]
enzyme activity (%) ([6]; 284 μM inhibitor, solubilized protein preincubated 30 minutes, diluted 20-fold, control 100): 44 ± 1% | inhibition / inactivation of the endoprotease (in words) ([6]; solubilized endoprotease): good inhibitors

Reference: patent US6015877A, “Compounds for inhibition of proteolysis” (President and Fellows of Harvard College, priority 1996, dated 2000)
